# From US20240247250A1, “COMPOSITIONS AND METHODS FOR MODIFYING DNA” (The Regents of the University of California, priority 2021, published 2024)
# “Also recorded” adds a separate entry of the source.
# Target: tRNA guanine transglycosylase (TGT) (Escherichia coli, UniProt P0A847)
# Assay: TGT labeling of DNA/RNA hairpin oligos with PreQ1 probes, urea PAGE gel shift
# Assay type: biochemical, E. coli
# Settings: for turn over by TGT: extended stem DNA analog of ECYA1 with minimal recognition element mutations, denaturing urea PAGE shift and intensity; for labeled product: 17 nucleotide DNA hairpins derived from cognate tRNA anticodon loops; for labeling of the representative DNA hairpin substrate by functional PreQ1 probes: urea PAGE gel shift assays
# [1] = urea PAGE gel shift and intensity
# tRNA guanine transglycosylase (TGT), sequence (P0A847 whole entry): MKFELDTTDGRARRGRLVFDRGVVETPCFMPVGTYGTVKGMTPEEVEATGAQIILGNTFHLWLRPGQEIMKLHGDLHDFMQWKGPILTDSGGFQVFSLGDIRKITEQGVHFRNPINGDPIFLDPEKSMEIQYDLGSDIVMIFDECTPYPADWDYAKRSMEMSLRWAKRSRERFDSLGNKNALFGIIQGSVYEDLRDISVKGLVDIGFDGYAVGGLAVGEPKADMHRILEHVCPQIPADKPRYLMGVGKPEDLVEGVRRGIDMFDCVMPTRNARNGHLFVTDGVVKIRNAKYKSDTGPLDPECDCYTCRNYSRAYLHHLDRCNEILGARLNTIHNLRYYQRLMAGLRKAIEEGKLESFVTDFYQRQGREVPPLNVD
compound,measurement,setting,value
GGGAGCAGACTGTAAATCTGCTCCC [dTdGdT],turn over by TGT,PreQ1-biotin probe,no appreciable turn over
GGGAGCAGACUGUAAATCTGCTCCC [dUdGdU],turn over by TGT,PreQ1-biotin probe,comparable turn over to the wildtype RNA substrate
CTGGATTGTGATTCCAG,labeled product,[1],~40%
GCAGACTGTAAATCTGC [tyrosine based counterpart],labeled product,[1],~-5%
GGGAGCAGACTGUAAATCTGCTCCC [dTdGdU],turn over by TGT,PreQ1-biotin probe,comparable turn over to the wildtype RNA substrate
CTGGACTGTCACTCCAG [His(stem)-Asp(loop)],labeling efficiency,"composite hairpins with swapped stems and loops, urea PAGE gel shift and intensity",over 50%
Alexa Fluor 647,labeling of the representative DNA hairpin substrate by functional PreQ1 probes,,Quantitative labeling
GGGAGCAGACUGTAAATCTGCTCCC [dUdGdT],turn over by TGT,PreQ1-biotin probe,no appreciable turn over
Nc1nc2[nH]cc(CNCCCCCCNC(=O)CCCCC3SCC4NC(=O)NC43)c2c(=O)[nH]1 (stereo not shown) [PreQ1-biotin],labeling of the representative DNA hairpin substrate by functional PreQ1 probes,,Quantitative labeling
TAMRA,labeling of the representative DNA hairpin substrate by functional PreQ1 probes,,Quantitative labeling
CCTGCCTGTCACGCAGG,labeled product,[1],~40%
CTGGATTGTCCTTCCAG [SEQ ID NO:21],labeling with PreQ1-biotin confirmed by LCMS,LCMS analysis of PreQ1-biotin labeled sequence,efficient labeling
same,labeling of hairpin or loop sequence appended to longer ssDNA,"PreQ1-biotin probe, urea PAGE gel shift, listed as TAG2 DNA hairpin",can be modified internally; also recorded: can be modified at either end of a DNA sequence of interest
